Among the data in patent US12692253B2, “Antimicrobial compounds and methods” (Curza Global, LLC, priority 2019, dated 2026) are IC50 and MIC values, retold here.

Experiment [1] has as its system E. coli S30 extract (bacterial protein synthesis). Put plainly: E. coli S30 extract coupled transcription-translation luciferase assay (inhibition of bacterial protein synthesis). It is filed as biochemical. The settings on record: class by IC50 or % inhibition @ 1 μM, read-out: S30 IC50 (μM/% inhib.). On the procedure:
E. coli S30 extract: Inhibition of bacterial protein synthesis was determined using the E. coli S30 Extract System for Circular DNA (Promega catalog #L-2010) and Luciferase Assay Reagent (Promega catalog #E1500) with slight modifications to a published protocol. Fyfe, C., Sutcliffe, J. A. and Grossman, T. H. (2012) “Development and characterization of a Pseudomonas aeruginosa in vitro coupled transcription-translation assay system for evaluation of translation inhibitors” J. Microbiol. Methods 90(3), 256-261.
Compounds were serial diluted in 0.5 mL microcentrifuge tubes by mixing and transferring 50 μL from the highest concentration to 50 μL of water, mixing and transferring 50 μL of this 2-fold dilution to 50 μL of water. This mixing and transferring was repeated so that there are a total of 8 tubes with serial dilutions of compound at 10× the desired screening concentration that are ultimately diluted to 1× by the addition of S30 luciferase synthesis mixture. Serial dilutions of compounds were added (2 μL) to wells in a black round bottom 96-well plate. Water (2 μL) was used as a “no inhibitor” control in 4 wells/plate. No DNA control reaction mixture (20 μL; see below) was used as a control in 4 wells/plate for background luminescence. S30 luciferase synthesis mixture (18 μL; see below) was added to wells with compounds or water mixture and incubated at 37° C. for 1 hour. Reactions were stopped by transferring to 4° C. refrigerator for 5 minutes then 25 μL of luciferase activity mix was added. Luminescence was measured using a BioTek Synergy HTX plate reader. % Inhibition was determined relative to no inhibitor controls. • S30 luciferase synthesis mixture: • 445 μL S30 extract, circular • 712 μL S30 Premix without amino acids • 4.45 μL pBESTluc™ DNA (1 μg/μL) • 78 μL complete amino acid mixture • 267 μL water • No DNA control: • 20 μL S30 extract, circular • 32 μL S30 Premix without amino acids • 7 μL complete amino acid mixture • 21 μL water Rabbit Reticulocyte lysate

The target in experiment [2] is Rabbit Reticulocyte Lysate (eukaryotic protein synthesis). Put plainly: Rabbit reticulocyte lysate luciferase assay (inhibition of eukaryotic protein synthesis). It is filed as biochemical. The settings on record: class by IC50 or % inhibition @ 1 μM, read-out: Rabbit reticulocyte IC50 (μM/% inhib.). On the procedure: Inhibition of eukaryotic protein synthesis was determined using the Rabbit Reticulocyte Lysate System, Nuclease-Treated from Promega (catalog #L-4960) with slight modifications to the manufacturer's protocol. Compounds were serial diluted in 0.5 mL microcentrifuge tubes by mixing and transferring 50 μL from the highest concentration to 50 μL of water, mixing and transferring 50 μL of this 2-fold dilution to 50 μL of water. This mixing and transferring was repeated so that there are a total of 8 tubes with serial dilutions of compound at 10× the desired screening concentration that are ultimately diluted to 1× by the addition of rabbit reticulocyte luciferase synthesis mixture. Serial dilutions of compounds were added (2.5 μL) to wells in a black round bottom 96-well plate. Water (2.5 μL) was used as a “no inhibitor” control in 4 wells/plate. No RNA control reaction mixture (2 μL; see below) was used as a control in 4 wells/plate for background luminescence. Rabbit reticulocyte luciferase synthesis mixture (22.5 μL; see below) was added to wells with compounds or water mixture and incubated at 30° C. for 90 minutes. Luciferase assay reagent (25 μL) was added with luminescence measured using a BioTek Synergy HTX plate reader. % Inhibition was determined relative to no inhibitor controls.
Rabbit Reticulocyte Luciferase Synthesis Mixture:
• 1,000 μL rabbit reticulocyte lysate • 5.7 μL Luciferase Control RNA (1 μg/μL) • 26 μL complete amino acid mixture • 395 μL water • No RNA Control • 70 μL rabbit reticulocyte lysate • 2 μL complete amino acid mixture • 28 μL water Minimum Inhibitory Concentration (MIC)

The test system of a further experiment is E. coli (Ec). Put plainly: Broth microdilution minimum inhibitory concentration (MIC), CLSI. The settings on record: Escherichia coli, growth medium supplemented with sodium bicarbonate, read-out: E. coli + bicarb MIC. It is filed as cell-based. On the procedure:
A certified BSL-2 laboratory was used for testing. Compounds were evaluated using the broth microdilution minimum inhibitory concentration (MIC) and minimum bactericidal concentration (MBC) assays defined by Clinical and Laboratory Standards Institute (CLSI) in the M26-A guideline against S. aureus (Sa), E. coli (Ec), K. pneumoniae (Kp), A. baumannn (Ab), E. faecalis (Ef) and P. aeruginosa (Pa).
MICs were determined using the Clinical Laboratory and Standards Institute (CLSI) Broth Microdilution Method with slight modification. Clinical and Laboratory Standards Institute (2012). “Methods for dilution antimicrobial susceptibility tests for bacteria that grow aerobically; approved standard, 9th ed. M07-A9 Clinical and Laboratory Standards Institute, Wayne, PA” Serial two-fold dilutions of compounds are prepared in sterile clear round-bottom 96-well plates.
To prepare microdilution trays, two-fold dilutions of antimicrobial agent are prepared in growth medium: Cation-Adjusted Mueller-Hinton Broth (CAMHB), or CAMHB supplemented with sodium bicarbonate (6.25 or 25 mM final concentration prepared from a 1.0M stock solution) or CAMHB supplemented with heat inactivated human serum (Fisher Cat. #BP2657100) 0-50% by adding 200 µL of the highest concentration to be tested (64 μg/mL, for example) in row A, mixing and transferring 100 μL from row A to 100 μL growth medium in row B, then repeating the mixing and transferring through row H of the 96-well plate, discarding the excess […] remaining. This slight modification to the CLSI protocol enables evaluation of MICs for 3 compounds per plate in triplicate, albeit with only 8 compound dilutions (CLSI protocol enables 2 compounds in triplicate with 10 dilutions). Bacterial suspensions are added to a final concentration of 5×10^4 CFU/well by adding 5 μL of a 1:10 dilution of a 0.5 McFarland suspension (1×10^8 CFU/mL) for each bacterium evaluated. Bacterial suspensions were prepared using the growth method described by CLSI. Well-isolated colonies (3-5 from an agar plate) were selected using a sterile loop and used to inoculate a tube containing 4 mL of CAMHB. The cultures are incubated at 35±2° C. until it achieves or exceeds the turbidity of the 0.5 McFarland standard, determined by measuring A600 (usually two to six hours). When growth exceeds a 0.5 McFarland standard, the turbidity is adjusted with broth to be equivalent to a 0.5 McFarland standard.
For orientation: Broth dilution looks for growth in wells or tubes with falling amounts of substance.

Usually MIC stands for the smallest concentration in the dilution series that meets the test's criterion for growth inhibition.

With `Cc1cc(-n2ccc(NC(=O)N3CCN(C(=O)[C@@](C)(N)CO)CC3)nc2=O)ccc1CN1C[C@@H]2[C@@H](N)[C@@H]2C1` [Compound 1], the results for the IC50 in experiment [1] and in experiment [2] were less than 0.5 µM and no less than 1 µM, respectively.
`CC(C)(N)C(=O)N1CCN(C(=O)Nc2ccn(-c3cc(CN4C[C@@H]5[C@@H](N)[C@@H]5C4)cc(C(F)(F)F)c3)c(=O)n2)CC1` [Compound 5]: the IC50 in experiment [1] and in experiment [2] was no less than 1 µM in each case.
As to `CC(C)(N)C(=O)N1CCN(C(=O)Nc2ccn(-c3ccc(CN4C[C@@H]5[C@@H](N)[C@@H]5C4)c(C(F)(F)F)c3)c(=O)n2)CC1` [Compound 6], the IC50 in experiment [1] and in experiment [2] was no less than 1 µM throughout.
For the compound `CC(C)(N)C(=O)N1CCN(C(=O)Nc2ccn(-c3cc(F)c(CN4C[C@@H]5[C@@H](N)[C@@H]5C4)c(F)c3)c(=O)n2)CC1` [Compound 8], the IC50 in experiment [1] is no less than 1 µM. In addition, the MIC in the experiment on E. coli (Ec) is greater than 32 µg/mL.
In the same order, the values of `CC(C)(N)CC(=O)N1CCN(C(=O)Nc2ccn(-c3ccc(CN4C[C@@H]5[C@@H](N)[C@@H]5C4)c(C(F)(F)F)c3)c(=O)n2)CC1` [Compound 9] are no less than 1 µM and greater than 32 µg/mL.
For the compound `CCOC(=O)C(c1ccc(-n2ccc(NC(=O)N3CCN(C(=O)C(C)(C)N)CC3)nc2=O)cc1)N1C[C@@H]2[C@@H](N)[C@@H]2C1` (some centres unmarked) [Compound 10], the IC50 in experiment [1] and in experiment [2] was no less than 1 µM each time.
With `C[C@](N)(CO)C(=O)N1CCN(C(=O)Nc2ccn(-c3ccc(CN4C[C@@H]5[C@@H](N)[C@@H]5C4)c(C(F)(F)F)c3)c(=O)n2)CC1` [Compound 11], the IC50 in experiment [1] and in experiment [2] was no less than 1 µM in each case.
`CC(N)(C(=O)N1CCN(C(=O)Nc2ccn(-c3ccc(CN4C[C@@H]5[C@@H](N)[C@@H]5C4)cc3)c(=O)n2)CC1)C(F)(F)F` (some centres unmarked) [Compound 15]: in experiment [1], the IC50 was no less than 1 µM. In addition, the minimal inhibitory concentration (MIC) in the experiment with E. coli (Ec) was greater than 32 µg/mL.
For the compound `CC(C)(N)C(=O)N1CCN(C(=O)Nc2ccn(-c3ccc(CN4CCC5(CC5N)C4)cc3)c(=O)n2)CC1` (centres unmarked) [Compound 22], the values for the IC50 in experiment [1] and in experiment [2] were less than 0.5 µM and no less than 1 µM, respectively.
In the same order, the values of `NC[C@H](N)C(=O)N1CCN(C(=O)Nc2ccn(-c3ccc(CN4C[C@@H]5[C@@H](N)[C@@H]5C4)cc3)c(=O)n2)CC1` [Compound 43] are no less than 1 µM and no less than 1 µM.
In the same order, the values of `C[C@](N)(CN)C(=O)N1CCN(C(=O)Nc2ccn(-c3ccc(CN4C[C@@H]5[C@@H](N)[C@@H]5C4)cc3)c(=O)n2)CC1` [Compound 44] are no less than 1 µM and no less than 1 µM.
With `CC(C)(N)C(=O)N1CCN(C(=O)Nc2ccn(-c3ccc(CN4CCC5(CCC(N)CC5)CC4)cc3)c(=O)n2)CC1` [Compound 55], the IC50 in experiment [1] is less than 0.5 µM; in experiment [2], no less than 1 µM.
The like results for `CC(C)(N)C(=O)N1CCN(C(=O)Nc2ccn(-c3ccc(CN4C[C@@H]5[C@@H](N)[C@@H]5C4)nc3)c(=O)n2)CC1` [Compound 57] were, in that order, no less than 1 µM and no less than 1 µM.
On to `CC(C)(N)C(=O)N1CCN(C(=O)Nc2ccn(-c3ccc(CN4CCN5CCNCC5C4)cc3)c(=O)n2)CC1` (centres unmarked) [Compound 78], for which the IC50 in experiment [1] and in experiment [2] was no less than 1 µM in each case.
Turning to `CC(C)(N)C(=O)N1CCN(C(=O)Nc2ccn(-c3ccc(CN4C[C@@H]5CN[C@@H]5C4)cc3)c(=O)n2)CC1` [Compound 79], the IC50 in experiment [1] and in experiment [2] was no less than 1 µM throughout.
Take `CC(C)(N)C(=O)N1CCN(C(=O)Nc2ccn(-c3cccc(CCN4C[C@@H]5[C@@H](N)[C@@H]5C4)c3)c(=O)n2)CC1` [Compound 86]: the IC50 in experiment [1] and in experiment [2] was no less than 1 µM throughout.
Regarding `N[C@@H]1[C@H]2CN(CCc3cccc(-n4ccc(NC(=O)N5CCNCC5)nc4=O)c3)C[C@@H]12` [Compound 87], the IC50 in experiment [1] and in experiment [2] was no less than 1 µM throughout.
In the case of `N[C@@H]1[C@H]2CN(CCc3cccc(-n4ccc(NC(=O)N5CCN(C(=O)C6(N)CCC6)CC5)nc4=O)c3)C[C@@H]12` [Compound 88], the IC50 in experiment [1] and in experiment [2] was no less than 1 µM in each case.
Consider `CC(C)(N)C(=O)N1CCN(C(=O)Nc2ccn(-c3ccc(CCN4C[C@@H]5[C@H](N)[C@@H]5C4)cc3)c(=O)n2)CC1` [Compound 90], for which the IC50 in experiment [1] and in experiment [2] was no less than 1 µM in each case.
For `CC(C)(N)C(=O)N1CCN(C(=O)Nc2ccn(-c3ccc(CCN4CC5(CC(N)C5)C4)cc3)c(=O)n2)CC1` [Compound 92], the IC50 was less than 0.5 µM in experiment [1] and no less than 1 µM in experiment [2].
In the same order, the values of `CC(CN1C[C@@H]2[C@@H](N)[C@@H]2C1)c1ccc(-n2ccc(NC(=O)N3CCN(C(=O)C(C)(C)N)CC3)nc2=O)cc1` (some centres unmarked) [Compound 97] are no less than 1 µM and no less than 1 µM.
Regarding `CC(Cc1ccc(-n2ccc(NC(=O)N3CCN(C(=O)C(C)(C)N)CC3)nc2=O)cc1)N1C[C@@H]2[C@@H](N)[C@@H]2C1` (some centres unmarked) [Compound 98], the IC50 in experiment [1] and in experiment [2] was no less than 1 µM each time.
For the compound `COc1cc(-n2ccc(NC(=O)N3CCN(C(=O)C(C)(C)N)CC3)nc2=O)ccc1CCN1C[C@@H]2[C@H](N)[C@@H]2C1` [Compound 104], the IC50 in experiment [1] and in experiment [2] was no less than 1 µM throughout.
As for `CC(C)(N)C(=O)N1CCN(C(=O)Nc2ccn(-c3ccc(C(C)(C)CN4C[C@@H]5[C@@H](CN)[C@@H]5C4)cc3)c(=O)n2)CC1` [Compound 118], the IC50 in experiment [1] and in experiment [2] was no less than 1 µM each time.
With `CC(C)(N)C(=O)N1CCN(C(=O)Nc2ccn(-c3ccc(C(C)(C)CN4CC5CC5(CN)C4)cc3)c(=O)n2)CC1` (centres unmarked) [Compound 119], the IC50 in experiment [1] and in experiment [2] was no less than 1 µM in each case.
For `CC(C)(N)C(=O)N1CCN(C(=O)Nc2ccn(-c3cccc(CCN4C[C@H]5CNC[C@H]5C4)c3)c(=O)n2)CC1` [Compound 158], the IC50 in experiment [1] is no less than 1 µM.
For the compound `CC(C)(N)C(=O)N1CCN(C(=O)Nc2ccn(-c3ccc(CCN4C[C@H]5CNC[C@H]5C4)cc3)c(=O)n2)CC1` [Compound 159], the IC50 in experiment [1] and in experiment [2] was no less than 1 µM in each case.
